Reference: patent publication US9221985B2, “Solvent compositions” (TBF Environmental Technology, Inc., priority 2013, dated 2015)
Read-outs that look alike come from different tables or passages of the source.

Experiments:
[1] = Hansen solubility parameters
From the text: In some embodiments, a solvent composition according to the present disclosure includes an acetate ester, such as MA, EA, or TBAc, in combination with one or more additional reagents to increase dispersion and decrease hydrogen bonding and/or to decrease the polarity of the solvent composition.

[2] = Evaporation rate relative to n-butyl acetate / xylene; assay type: physicochemical
From the text: […]. […] Without being bound to any particular theory, the “tail” solvent may slow the drying of a coating towards the end, allowing time for it to flow and level, and preventing dry spray, thereby improving the film appearance.
The evaporation rate of Formulation 1vs xylene was examined (FIG. 1). Formulation 1 was faster evaporating than xylene by a factor of 1.63-1.65. However it was apparent that the evaporation rate of Formulation 1 slowed towards the end. This slower “Tail” would aid in flow and leveling and help prevent dry spray.

[3] = cited from earlier work
[4] = Physical/chemical characteristics of the solvents (specific gravity, flash point, boiling point, viscosity, surface tension, volatility); conditions: for Surface tension: at 20° C.
[5] = Solvency or reduction characteristics: viscosity of epoxy resin reduced with solvent; assay type: physicochemical
[6] = Viscosity of Paraloid B-66 DMC acrylic resin with reduction in solids; assay type: physicochemical
[7] = relative to n-butyl acetate = 1
[8] = EPON 828 reduced to 95% solids content by weight
[9] = reduced to 35.0% non-volatile with the solvent
[10] = reduced to 40.0% non-volatile with the solvent

| Compound | δD (dispersion) [1] [cal^1/2 cm^−3/2] | δH (hydrogen bonding) [1] [cal^1/2 cm^−3/2] | δP (polar) [1] [cal^1/2 cm^−3/2] | Evaporation rate (n-butyl acetate = 1) [2, 7] | Boiling Point [4] | Viscosity @ 20° C. [4] | Specific Gravity (@25° C.) [4] | Flashpoint (TCC) [4] | Surface tension [4] | Viscosity @ 20 RPM ([5]; EPON 828, 50% solids content) [cps] | Viscosity @ 20 RPM ([5]; EPON 828, 55% solids content) [cps] | Viscosity @ 20 RPM ([5]; EPON 828, 60% solids content) [cps] | Viscosity @ 20 RPM ([5]; EPON 828, 65% solids content) [cps] | Viscosity @ 20 RPM ([5]; EPON 828, 70% solids content) [cps] | Viscosity @ 20 RPM ([5]; EPON 828, 75% solids content) [cps] | Viscosity @ 20 RPM ([5]; EPON 828, 80% solids content) [cps] | Viscosity @ 20 RPM ([5]; EPON 828, 85% solids content) [cps] | Viscosity @ 20 RPM ([5]; EPON 828, 90% solids content) [cps] | Viscosity of Paraloid B-66 DMC [6, 9] [cps] | Viscosity of Paraloid B-66 DMC [6, 10] [cps] | further results |
| --- | --- | --- | --- | --- | --- | --- | --- | --- | --- | --- | --- | --- | --- | --- | --- | --- | --- | --- | --- | --- | --- |
| COC(C)=O [MA, methyl acetate] | 7.6 | 3.7 | 3.5 | 6.2 | 56 °C | 0.37 (mPa · s) cP | 0.93 | −4 °C | 24.8 dyn/cm |  |  |  |  |  |  |  |  |  |  |  | δ (Hansen solubility parameter) [1]: 9.5 cal^1/2 cm^−3/2; solubility in water ([3]; in water at room temperature): 25%; stability ([3]; strong aqueous bases or aqueous acids): not stable in the presence of strong aqueous bases or aqueous acids |
| xylene [Xylenes] | 9.2 | 1.15 | 1.3 |  | 110.6-144 °C | 0.34-0.8 (mPa · s) cP | 0.87 | 17-25 °C | 25.32-28.27 dyn/cm | 13 | 17 | 19 | 28 | 40 | 76 | 148 | 330 | 880 | 580 | 1500 | Evaporation rate (n-butyl acetate = 1) [2]: 0.9; Viscosity @ 20 RPM [5, 8]: 3350 cps; Flashpoint (TCC) ([4]; listed as xylene): 30 °C |
| COC(=O)OC [DMC, dimethyl carbonate] |  |  |  |  |  |  |  |  |  |  |  |  |  |  |  |  |  |  | 370 | 970 |  |
| CC(=O)OC(C)(C)C [TBAc, tert-butyl acetate] | 7 | 2.9 | 1.7 |  | 98 °C | 0.7 (mPa · s) cP | 0.87 | 16.7 °C | 22.4 dyn/cm | 15 | 19 | 22 | 26 | 81 | 93 | 192 | 430 | 1150 | 290 | 780 | Evaporation rate (n-butyl acetate = 1) [2]: 2.8; Viscosity @ 20 RPM [5, 8]: 4250 cps |
| Cc1ccccc1 [Toluene, toluene] | 8.8 | 0.98 | 0.68 | 1.9 |  | 0.59 (mPa · s) cP | 0.86 | 16 °C | 27.73 dyn/cm |  |  |  |  |  |  |  |  |  |  |  |  |
| FC(F)(F)c1ccc(Cl)cc1 [PCBTF, parachlorobenzotrifluoride] | 8.8 | 1.9 | 2.9 | 0.9 | 139 °C | 0.79 (mPa · s) cP | 1.34 | 109 °C | 25 dyn/cm | 27 | 38 | 52 | 91 | 153 | 278 | 544 | 1010 | 1900 | 450 | 1050 | δ (Hansen solubility parameter) [1]: 9.15 cal^1/2 cm^−3/2; Viscosity @ 20 RPM [5, 8]: 5125 cps |
